According to PMC2742306 (Molecular cell, 2009):
No end group written: not given here. βAla = NCCC(=O)O

Assays:
D320A DegS [1] = biological target: T1, D320A DegS (Escherichia coli, UniProt P0AEE3, D320A); experiment: OMP-peptide activation of RseA cleavage by D320A DegS; type: biochemical, E. coli
K243D mutant of DegS [2] = biological target: T2, K243D mutant of DegS (Escherichia coli, UniProt P0AEE3, K243D); type: biochemical, E. coli
D320A DegS [3] = biological target: T1, D320A DegS; type: biochemical, E. coli
[4] = biological target: K243D/D320A mutant of DegS (Escherichia coli, UniProt P0AEE3, D320A/K243D); type: biochemical, E. coli
[5] = biological target: K243D/M319A double mutant of DegS (Escherichia coli, UniProt P0AEE3, K243D/M319A); type: biochemical, E. coli; conditions: saturating peptide
wild-type DegS [6] = biological target: T3, wild-type DegS (Escherichia coli, UniProt P0AEE3); type: biochemical, E. coli; conditions: wild-type DegS 0.9 μM trimer; 20 μM rhodamine-FP; saturating peptide
wild-type DegS [7] = biological target: T3, wild-type DegS; type: biochemical, E. coli
K243D mutant of DegS [8] = biological target: T2, K243D mutant of DegS; experiment: Global fit to MWC allosteric model, K243D DegS; type: biochemical, E. coli; conditions: K243D, MWC global fit
D320A DegS [9] = biological target: T1, D320A DegS; experiment: Global fit to MWC allosteric model, D320A DegS; type: biochemical, E. coli; conditions: D320A, MWC global fit
wild-type DegS [10] = biological target: T3, wild-type DegS; conditions: 200 μM RseA, ref Sohn et al. (2007); cited from earlier work
wild-type DegS [11] = biological target: T3, wild-type DegS; conditions: saturating peptide, ref Sohn et al. (2007); cited from earlier work
[12] = biological target: T4, DegS M319A (residues 27–355, N-terminal His6 tag) (E. coli, UniProt P0AEE3 27-355, M319A); experiment: fluorescence polarisation
T4 sequence (looked up): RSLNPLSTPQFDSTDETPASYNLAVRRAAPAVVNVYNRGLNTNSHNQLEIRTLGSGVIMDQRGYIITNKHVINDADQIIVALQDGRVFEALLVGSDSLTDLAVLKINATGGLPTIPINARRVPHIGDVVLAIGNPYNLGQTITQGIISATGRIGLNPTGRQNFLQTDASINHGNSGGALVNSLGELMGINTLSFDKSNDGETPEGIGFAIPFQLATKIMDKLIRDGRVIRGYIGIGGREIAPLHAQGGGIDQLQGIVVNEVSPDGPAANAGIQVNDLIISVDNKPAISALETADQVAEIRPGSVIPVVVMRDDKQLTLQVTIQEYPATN

[13] = biological target: T5, DegS K243D/M319A double mutant (residues 27–355, N-terminal His6 tag) (E. coli, UniProt P0AEE3 27-355, K243D | M319A); experiment: fluorescence polarisation
T5 sequence (looked up): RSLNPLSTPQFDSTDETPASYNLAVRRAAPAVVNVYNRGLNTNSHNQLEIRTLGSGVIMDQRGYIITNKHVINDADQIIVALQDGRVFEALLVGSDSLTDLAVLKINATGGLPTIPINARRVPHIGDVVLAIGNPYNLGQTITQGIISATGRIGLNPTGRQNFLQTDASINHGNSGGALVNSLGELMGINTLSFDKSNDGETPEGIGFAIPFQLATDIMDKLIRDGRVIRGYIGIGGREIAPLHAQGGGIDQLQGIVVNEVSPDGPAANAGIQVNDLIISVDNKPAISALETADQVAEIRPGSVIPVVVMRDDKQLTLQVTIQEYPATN

DegS and its mutants = experiment: Global fit to MWC allosteric model, RseA substrate binding; type: biochemical, E. coli
[14] = enzyme parameter, peptide-independent
[15] = peptide preference for relaxed state
[16] = same value for all enzymes and peptides

T1 sequence (P0AEE3 27-355 D320A): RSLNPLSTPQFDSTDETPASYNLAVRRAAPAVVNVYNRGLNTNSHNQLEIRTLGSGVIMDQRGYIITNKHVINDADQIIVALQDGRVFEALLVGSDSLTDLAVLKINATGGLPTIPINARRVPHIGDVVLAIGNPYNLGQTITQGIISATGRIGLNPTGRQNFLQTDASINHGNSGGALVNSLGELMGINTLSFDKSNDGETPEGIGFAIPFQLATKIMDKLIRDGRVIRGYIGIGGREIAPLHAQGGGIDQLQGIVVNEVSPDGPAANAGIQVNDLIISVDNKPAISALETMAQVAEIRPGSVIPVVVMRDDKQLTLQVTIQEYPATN
T2 sequence (P0AEE3 27-355 K243D): as the sequence (P0AEE3 27-355 D320A) above, with K217D, A294D counted along it
T3 sequence (P0AEE3 27-355): as the sequence (P0AEE3 27-355 D320A) above, with A294D counted along it
Sequence of K243D/D320A mutant of DegS (P0AEE3 27-355 K243D/D320A): as the sequence (P0AEE3 27-355 D320A) above, with K217D counted along it

Molecule: DNRDGNVYYF [DNRDGNVYYF]
- EC50 (D320A DegS [1]): 0.2 ± 0.1 µM
- Vmax (RseA cleavage) (K243D mutant of DegS [2]; K243D 0.3 μM trimer, saturating peptide (DNRDGNVYYF 30 μM), 23 °C, pH 8.3): 1.8 ± 0.2 s^−1enz^−1
- Hill Constant (RseA substrate) (K243D mutant of DegS [2]; K243D, saturating peptide): 1.3 ± 0.1
- Vmax (RseA cleavage) (D320A DegS [3]; D320A 0.3 μM trimer, saturating peptide (DNRDGNVYYF 30 μM), 23 °C, pH 8.3): 2.5 ± 0.3 s^−1enz^−1
- Hill Constant (RseA substrate) (D320A DegS [3]; D320A, saturating peptide): 1.1 ± 0.2
- Vmax (RseA cleavage) ([4]; K243D/D320A 0.3 μM trimer, DNRDGNVYYF 30 μM, 23 °C, pH 8.3): 2.0 ± 0.3 s^−1enz^−1
- Hill Constant (RseA substrate) ([4]; K243D/D320A, saturating OMP peptide): 1.1 ± 0.1
- Hill Constant (RseA substrate) [5]: 1.2 ± 0.1
- Vmax (RseA cleavage) ([5]; 23 °C, pH 8.3): 1.4 ± 0.1 s^−1enz^−1
- rate of rhodamine-FP modification in presence of peptide (order) (wild-type DegS [6]): slower
- L0, equilibrium constant T/R of unliganded enzyme (wild-type DegS [7]; MWC global fit, enzyme parameter, peptide-independent): 15000
- KTP/KRP (wild-type DegS [7]; MWC global fit, peptide preference for relaxed state): 6.8
- kr, rate constant for cleavage of RseA by substrate-bound R-state subunits (wild-type DegS [7]; MWC global fit, same value for all enzymes and peptides): 3.3 s⁻¹
- DegS molecules in active conformation (wild-type DegS [7]; saturating peptide and saturating RseA substrate, MWC model): 45%
- KRS, dissociation constant of RseA substrate for R-state subunit (K243D mutant of DegS [8]; RseA, not peptide, binding): 150 µM
- KTS, dissociation constant of RseA substrate for T-state subunit (K243D mutant of DegS [8]; RseA, not peptide, binding): 505 µM
- L0, equilibrium constant T/R of unliganded enzyme (K243D mutant of DegS [8]; [14]): 180
- KTP/KRP (K243D mutant of DegS [8]; [15]): 2.0
- kr, rate constant for cleavage of RseA by substrate-bound R-state subunits (K243D mutant of DegS [8]; [16]): 3.3 s⁻¹
- KRS, dissociation constant of RseA substrate for R-state subunit (D320A DegS [9]; RseA, not peptide, binding): 150 µM
- KTS, dissociation constant of RseA substrate for T-state subunit (D320A DegS [9]; RseA, not peptide, binding): 505 µM
- L0, equilibrium constant T/R of unliganded enzyme (D320A DegS [9]; [14]): 350
- KTP/KRP (D320A DegS [9]; [15]): 3.3
- kr, rate constant for cleavage of RseA by substrate-bound R-state subunits (D320A DegS [9]; [16]): 3.3 s⁻¹
- Hill Constant (peptide activation) (wild-type DegS [10]): 1.8 ± 0.2
- Hill Constant (RseA substrate) (wild-type DegS [11]): 1.6 ± 0.2
- Vmax (RseA cleavage) (wild-type DegS [11]): 1.1 ± 0.2 s^−1enz^−1

Molecule: {fluoresceine-βAla}-KKDNRDGNYYF [OMP peptide fluoresceine-β-alanine-KKDNRDGNYYF]
- Kd [12]: 0.14 µM
- Kd [13]: 0.18 µM

B1: RseA: 35S-labeled variant of the periplasmic domain of E. coli RseA (residues 121–216) with a C-terminal His6 tag (protein)
chain: YNGQSETSQQPETPVFNTLPMMGKASPVSLGVPSEATANNGQQQQVQEQRRRINAMLQDYELQRRLHSEQLQFEQAQTQQAAVQVPGIQTLGTQSQ
modifications: 35S-labeled; left off: His6, C-terminal, state not stated
- preference for relaxed state in substrate-saturated trimer (DegS and its mutants): approximately 40 fold
